Measured values as given in patent publication US11970494B2, “6-heteroaryloxy benzimidazoles and azabenzimidazoles as JAK2 inhibitors” (Ajax Therapeutics, Inc., priority 2021, dated 2024).
Each block holds one compound with its values, some of them ahead of it.

Legend:
Tyk2 = molecular target: T1, Tyk2 (Homo sapiens, UniProt P29597); assay: JAK Family Selectivity Assay: Tyk2 vs JAK2 binding affinity; settings: Kd TYK2 over Kd JAK2
T1 construct: made in house; host or cells: T7 phage in BL21-derived E. coli or HEK-293 cells
T1 sequence (P29597 whole entry): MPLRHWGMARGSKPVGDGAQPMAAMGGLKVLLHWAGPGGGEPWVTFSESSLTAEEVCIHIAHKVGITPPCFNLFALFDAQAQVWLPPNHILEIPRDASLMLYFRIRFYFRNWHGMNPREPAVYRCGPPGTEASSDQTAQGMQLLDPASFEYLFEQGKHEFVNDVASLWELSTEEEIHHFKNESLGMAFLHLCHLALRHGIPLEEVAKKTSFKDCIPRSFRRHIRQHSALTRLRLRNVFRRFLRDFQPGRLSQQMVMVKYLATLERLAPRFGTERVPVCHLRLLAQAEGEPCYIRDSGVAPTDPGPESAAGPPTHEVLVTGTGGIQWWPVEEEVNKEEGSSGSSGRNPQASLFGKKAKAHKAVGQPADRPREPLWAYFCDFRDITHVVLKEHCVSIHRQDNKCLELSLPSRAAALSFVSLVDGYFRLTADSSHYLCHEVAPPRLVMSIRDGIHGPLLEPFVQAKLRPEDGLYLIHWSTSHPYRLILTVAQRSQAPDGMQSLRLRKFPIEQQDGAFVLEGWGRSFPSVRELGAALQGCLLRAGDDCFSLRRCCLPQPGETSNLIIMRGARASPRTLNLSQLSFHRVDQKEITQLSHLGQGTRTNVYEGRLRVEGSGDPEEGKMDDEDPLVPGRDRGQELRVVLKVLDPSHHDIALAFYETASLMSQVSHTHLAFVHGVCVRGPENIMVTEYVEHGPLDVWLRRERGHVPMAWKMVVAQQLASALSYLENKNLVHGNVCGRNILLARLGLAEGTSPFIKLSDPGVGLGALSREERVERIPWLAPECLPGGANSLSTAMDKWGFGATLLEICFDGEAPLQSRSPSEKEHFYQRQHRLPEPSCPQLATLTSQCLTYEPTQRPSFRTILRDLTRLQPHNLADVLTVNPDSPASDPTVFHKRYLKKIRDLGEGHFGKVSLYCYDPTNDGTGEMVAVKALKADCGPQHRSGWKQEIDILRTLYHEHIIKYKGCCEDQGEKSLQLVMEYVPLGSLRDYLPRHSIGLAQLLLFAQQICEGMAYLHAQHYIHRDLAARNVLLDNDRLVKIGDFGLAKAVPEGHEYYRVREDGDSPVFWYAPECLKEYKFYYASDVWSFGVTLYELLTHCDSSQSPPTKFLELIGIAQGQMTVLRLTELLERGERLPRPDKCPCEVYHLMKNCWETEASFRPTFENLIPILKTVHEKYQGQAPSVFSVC
Description: (§1) Provided compounds are evaluated for selectivity by comparing their JAK2 binding affinity (Kd) in the above JAK2 Binding Assay with their binding affinity (Kd) for one or more other kinases. Binding affinity for other kinases is determined as follows: Kinase-tagged T7 phage strains are prepared in an E. coli host derived from the BL21 strain. E. coli are grown to log-phase and infected with T7 phage and incubated with shaking at 32° C. until lysis. The lysates are centrifuged and filtered to remove cell debris. The remaining kinases are produced in HEK-293 cells and subsequently tagged with DNA for qPCR detection. Streptavidin-coated magnetic beads are treated with biotinylated small molecule ligands for 30 minutes at room temperature to generate affinity resins for kinase assays. The liganded beads are blocked with excess biotin and washed with blocking buffer (SeaBlock (Pierce), 1% BSA, 0.05% Tween 20, 1 mM DTT) to remove unbound ligand and to reduce non-specific binding. Binding reactions are assembled by combining kinases, liganded affinity beads, and test compounds in 1× binding buffer (20% SeaBlock, 0.17×PBS, 0.05% Tween 20, 6 mM DTT). Test compounds are prepared as 111× stocks in 100% DMSO. Kds are determined using an 11-point 3-fold compound dilution series with three DMSO control points. All compounds for Kd measurements are distributed by acoustic transfer (non-contact dispensing) in 100% DMSO. The compounds are then diluted directly into the assays such that the final concentration of DMSO is 0.9%. All reactions are performed in polypropylene 384-well plate. Each has a final volume of 0.02 ml. The assay plates are incubated at room temperature with shaking for 1 hour and the affinity beads are washed with wash buffer (1×PBS, 0.05% Tween 20). The beads are then re-suspended in elution buffer (1× PBS, 0.05% Tween 20, 0.5 μM non-biotinylated affinity ligand) and incubated at room temperature with shaking for 30 minutes. The kinase concentration in the eluates is measured by qPCR. […] In some embodiments, provided compounds may be JAK2-selective over one or more of the following kinases: JAK1, JAK3, and Tyk2.

JAK3 = molecular target: T2, JAK3 (Homo sapiens, UniProt P52333); assay: JAK Family Selectivity Assay: JAK3 vs JAK2 binding affinity; settings: Kd JAK3 over Kd JAK2
T2 construct: made in house; host or cells: T7 phage in BL21-derived E. coli or HEK-293 cells
T2 sequence (P52333 1-1124): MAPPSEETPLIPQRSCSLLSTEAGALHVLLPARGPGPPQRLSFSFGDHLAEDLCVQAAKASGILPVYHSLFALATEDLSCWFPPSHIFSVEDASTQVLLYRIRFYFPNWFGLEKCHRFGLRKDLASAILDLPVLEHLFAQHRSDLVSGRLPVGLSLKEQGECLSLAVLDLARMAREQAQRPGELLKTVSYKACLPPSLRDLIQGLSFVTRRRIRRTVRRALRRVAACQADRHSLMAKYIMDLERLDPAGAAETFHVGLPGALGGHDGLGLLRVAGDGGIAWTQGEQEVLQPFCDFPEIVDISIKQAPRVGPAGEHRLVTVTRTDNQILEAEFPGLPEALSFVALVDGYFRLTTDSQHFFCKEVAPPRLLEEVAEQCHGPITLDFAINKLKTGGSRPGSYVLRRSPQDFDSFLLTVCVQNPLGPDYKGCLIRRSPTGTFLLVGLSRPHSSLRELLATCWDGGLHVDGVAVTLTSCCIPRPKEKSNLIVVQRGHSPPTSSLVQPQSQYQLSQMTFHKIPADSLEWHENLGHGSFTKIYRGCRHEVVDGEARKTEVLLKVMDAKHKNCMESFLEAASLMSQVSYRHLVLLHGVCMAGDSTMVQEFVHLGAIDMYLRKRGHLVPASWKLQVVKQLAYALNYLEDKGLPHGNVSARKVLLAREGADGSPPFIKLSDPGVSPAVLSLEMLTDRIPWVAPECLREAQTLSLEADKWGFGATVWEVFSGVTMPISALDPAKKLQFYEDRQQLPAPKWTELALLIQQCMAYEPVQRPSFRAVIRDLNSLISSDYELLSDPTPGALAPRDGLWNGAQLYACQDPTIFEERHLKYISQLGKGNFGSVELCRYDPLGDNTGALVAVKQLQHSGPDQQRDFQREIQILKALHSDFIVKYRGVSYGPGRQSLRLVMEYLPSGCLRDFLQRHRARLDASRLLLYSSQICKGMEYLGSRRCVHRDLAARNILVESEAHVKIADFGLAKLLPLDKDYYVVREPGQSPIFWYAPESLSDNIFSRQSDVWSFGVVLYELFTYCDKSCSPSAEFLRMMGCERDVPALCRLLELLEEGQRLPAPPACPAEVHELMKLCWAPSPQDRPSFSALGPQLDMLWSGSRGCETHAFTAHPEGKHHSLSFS
Description: as §1

Structure (SMILES): CO[C@@H]1CCN(C(=O)Nc2cc(Oc3cnc4nc(Nc5cc6n(n5)CCC65CCC5)n(C)c4c3C#N)ccn2)C1 [Example I-60, (R)-N-(4-((7-cyano-2-((5′,6′-dihydrospiro[cyclobutane-1,4′-pyrrolo[1,2-b]pyrazol]-2′-yl)amino)-1-methyl-1H-imidazo[4,5-b]pyridin-6-yl)oxy)pyridin-2-yl)-3-methoxypyrrolidine-1-carboxamide]
TYK2/JAK2 Kd/Kd ratio (Tyk2): D (Kd/Kd ratio <100)
JAK3/JAK2 Kd/Kd ratio (JAK3): B (Kd/Kd ratio <1000 and ≥300)

Structure (SMILES): COC(=O)Nc1cc(Oc2cnc3nc(Nc4cc(C(F)(F)F)cn(C)c4=O)n(C)c3c2C#N)ccn1 [Example I-3, Methyl (4-((7-cyano-1-methyl-2-((1-methyl-2-oxo-5-(trifluoromethyl)-1,2-dihydropyridin-3-yl)amino)-1H-imidazo[4,5-b]pyridin-6-yl)oxy)pyridin-2-yl)carbamate]
TYK2/JAK2 Kd/Kd ratio (Tyk2): C (Kd/Kd ratio <300 and ≥100)
JAK3/JAK2 Kd/Kd ratio (JAK3): A (Kd/Kd ratio ≥1000)

Structure (SMILES): COC1CN(C(=O)Nc2cc(Oc3cnc4nc(Nc5cc6n(n5)CCC65CCC5)n(C)c4c3C#N)ccn2)C1 [Example I-61, N-(4-((7-cyano-2-((5′,6′-dihydrospiro[cyclobutane-1,4′-pyrrolo[1,2-b]pyrazol]-2′-yl)amino)-1-methyl-1H-imidazo[4,5-b]pyridin-6-yl)oxy)pyridin-2-yl)-3-methoxyazetidine carboxamide]
TYK2/JAK2 Kd/Kd ratio (Tyk2): D (Kd/Kd ratio <100)
JAK3/JAK2 Kd/Kd ratio (JAK3): A (Kd/Kd ratio ≥1000)

Structure (SMILES): CN(C)C(=O)Nc1cc(Oc2cnc3nc(Nc4cc(C(F)(F)F)cn(C)c4=O)n(C)c3c2C#N)ccn1 [Example I-4, 3-(4-((7-cyano-1-methyl-2-((1-methyl-2-oxo-5-(trifluoromethyl)-1,2-dihydropyridin-3-yl)amino)-1H-imidazo[4,5-b]pyridin-6-yl)oxy)pyridin-2-yl)-1,1-dimethylurea]
TYK2/JAK2 Kd/Kd ratio (Tyk2): C (Kd/Kd ratio <300 and ≥100)
JAK3/JAK2 Kd/Kd ratio (JAK3): A (Kd/Kd ratio ≥1000)

Structure (SMILES): COCCOC(=O)Nc1cc(Oc2cnc3nc(Nc4cc5n(n4)CCC54CCC4)n(C)c3c2C#N)ccn1 [Example I-62, 2-methoxyethyl(4-((7-cyano-2-((5′,6′-dihydrospiro[cyclobutane-1,4′-pyrrolo[1,2-b]pyrazol]-2′-yl)amino)-1-methyl-1H-imidazo[4,5-b]pyridin-6-yl)oxy)pyridin-2-yl)carbamate]
TYK2/JAK2 Kd/Kd ratio (Tyk2): C (Kd/Kd ratio <300 and ≥100)
JAK3/JAK2 Kd/Kd ratio (JAK3): A (Kd/Kd ratio ≥1000)

Structure (SMILES): COCC(=O)Nc1cc(Oc2cnc3nc(Nc4cc(C(F)(F)F)cn(C)c4=O)n(C)c3c2C#N)ccn1 [Example I-79, N-(4-((7-cyano-1-methyl-2-((1-methyl-2-oxo-5-(trifluoromethyl)-1,2-dihydropyridin-3-yl)amino)-1H-imidazo[4,5-b]pyridin-6-yl)oxy)pyridin-2-yl)-2-methoxyacetamide]
TYK2/JAK2 Kd/Kd ratio (Tyk2): C (Kd/Kd ratio <300 and ≥100)
JAK3/JAK2 Kd/Kd ratio (JAK3): A (Kd/Kd ratio ≥1000)

Structure (SMILES): CCN1CCN(Cc2ccc(Nc3nc4ccc(Oc5ccnc(NC(C)=O)c5)cc4n3C)cc2C(F)(F)F)CC1 [Example R-1, reference compound]
TYK2/JAK2 Kd/Kd ratio (Tyk2): C (Kd/Kd ratio <300 and ≥100)
JAK3/JAK2 Kd/Kd ratio (JAK3): A (Kd/Kd ratio ≥1000)

Now from value to compound:

TYK2/JAK2 Kd/Kd ratio (Tyk2): B (Kd/Kd ratio <1000 and ≥300)
JAK3/JAK2 Kd/Kd ratio (JAK3): A (Kd/Kd ratio ≥1000)
Structure (SMILES): Cn1cc(C(F)(F)F)cc(Nc2nc3ncc(Oc4ccnc(NC(=O)OCCN5CCOCC5)c4)c(C#N)c3n2C)c1=O [Example I-15, 2-Morpholinoethyl(4-((7-cyano-1-methyl-2-((1-methyl-2-oxo-5-(trifluoromethyl)-1,2-dihydropyridin-3-yl)amino)-1H-imidazo[4,5-b]pyridin-6-yl)oxy)pyridin-2-yl)carbamate]

TYK2/JAK2 Kd/Kd ratio (Tyk2): C (Kd/Kd ratio <300 and ≥100)
JAK3/JAK2 Kd/Kd ratio (JAK3): A (Kd/Kd ratio ≥1000)
Structure (SMILES): CO[C@H]1CCN(C(=O)Nc2cc(Oc3cnc4nc(Nc5cc(C(F)(F)F)cn(C)c5=O)n(C)c4c3C#N)ccn2)C1 [Example I-14, (S)-N-(4-((7-cyano-1-methyl-2-((1-methyl-2-oxo-5-(trifluoromethyl)-1,2-dihydropyridin-3-yl)amino)-1H-imidazo[4,5-b]pyridin-6-yl)oxy)pyridin-2-yl)-3-methoxypyrrolidine-1-carboxamide]

TYK2/JAK2 Kd/Kd ratio (Tyk2): C (Kd/Kd ratio <300 and ≥100)
JAK3/JAK2 Kd/Kd ratio (JAK3): A (Kd/Kd ratio ≥1000)
Structure (SMILES): COCC(=O)Nc1cc(Oc2cnc3nc(Nc4cc(C(F)(F)F)cn(C)c4=O)n(C)c3c2Cl)ccn1 [Example I-75, N-(4-((7-chloro-1-methyl-2-((1-methyl-2-oxo-5-(trifluoromethyl)-1,2-dihydropyridin-3-yl)amino)-1H-imidazo[4,5-b]pyridin-6-yl)oxy)pyridin-2-yl)-2-methoxyacetamide]

TYK2/JAK2 Kd/Kd ratio (Tyk2): D (Kd/Kd ratio <100)
JAK3/JAK2 Kd/Kd ratio (JAK3): B (Kd/Kd ratio <1000 and ≥300)
Structure (SMILES): Cn1c(Nc2cc3n(n2)CCC32CCC2)nc2ncc(Oc3ccnc(NC(=O)C4CC4)c3)c(C#N)c21 [Example I-122, N-(4-((7-cyano-2-((5′,6′-dihydrospiro[cyclobutane-1,4′-pyrrolo[1,2-b]pyrazol]-2′-yl)amino)-1-methyl-1H-imidazo[4,5-b]pyridin-6-yl)oxy)pyridin-2-yl)cyclopropanecarboxamide]

TYK2/JAK2 Kd/Kd ratio (Tyk2): D (Kd/Kd ratio <100)
JAK3/JAK2 Kd/Kd ratio (JAK3): A (Kd/Kd ratio ≥1000)
Structure (SMILES): Cn1cc(C(F)(F)F)cc(Nc2nc3ncc(Oc4ccnc(NC(=O)N5CCC5)c4)c(C#N)c3n2C)c1=O [Example I-7, N-(4-((7-cyano-1-methyl-2-((1-methyl-2-oxo-5-(trifluoromethyl)-1,2-dihydropyridin-3-yl)amino)-1H-imidazo[4,5-b]pyridin-6-yl)oxy)pyridin-2-yl)azetidine-1-carboxamide]

TYK2/JAK2 Kd/Kd ratio (Tyk2): C (Kd/Kd ratio <300 and ≥100)
JAK3/JAK2 Kd/Kd ratio (JAK3): A (Kd/Kd ratio ≥1000)
Structure (SMILES): Cn1cc(C(F)(F)F)cc(Nc2nc3ncc(Oc4ccnc(NC(=O)O[C@@H]5CCOC5)c4)c(C#N)c3n2C)c1=O [Example I-18, (R)-Tetrahydrofuran-3-yl(4-((7-cyano-1-methyl-2-((1-methyl-2-oxo-5-(trifluoromethyl)-1,2-dihydropyridin-3-yl)amino)-1H-imidazo[4,5-b]pyridin-6-yl)oxy)pyridin-2-yl)carbamate]

TYK2/JAK2 Kd/Kd ratio (Tyk2): D (Kd/Kd ratio <100)
JAK3/JAK2 Kd/Kd ratio (JAK3): A (Kd/Kd ratio ≥1000)
Structure (SMILES): CC(=O)Nc1cc(Oc2cnc3nc(Nc4cc(C(F)(F)F)cn(C)c4=O)n(C)c3c2Cl)c(F)cn1 [Example I-88, N-(4-((7-chloro-1-methyl-2-((1-methyl-2-oxo-5-(trifluoromethyl)-1,2-dihydropyridin-3-yl)amino)-1H-imidazo[4,5-b]pyridin-6-yl)oxy)-5-fluoropyridin-2-yl)acetamide]
